What all share (type): biochemical
Assay [1] addresses T1, human insulin receptor (Ins-R) (Homo sapiens, UniProt P06213).
T1 construct: encoding the amino acid region 919-1343 of the intra-cytoplasmic kinase domain of the human insulin receptor; made in house; host or cells: baculovirus (Bac-to-Bac)
The experiment in a line: Ins-R tyrosine kinase assay, GST-Ins-R. The following applies: Table 4; read-out: Ins-R, activity (IC50 for kinase inhibition). The text has this:
The inhibition of IGF-1R and Ins-R can be determined as follows: The baculovirus donor vector pfbgx3IGFIRcd is used to generate a recombinant baculovirus that expresses the amino acid region 950-1337 of the mature peptide cytoplasmic domain of the human IGF-IR. To generate the cDNA fragment encoding the amino acid region 919-1343 of the intra-cytoplasmic kinase domain of the human insulin receptor, pC5hInsR is used. The fragments of the human IGF-IR and Ins-R are cloned, expressed and small-scale purified as a factor Xa-cleavable glutathione-S-transferase (GST)-fusion protein using the Bac-to-Bac™ system (GIBCO BRL) of recombinant baculovirus generation. Virus containing media is collected from the transfected cell culture and used for infection to increase its titer. Virus containing media obtained after two rounds of infection is used for large-scale protein expression. Cell extracts are prepared and loaded onto a glutathione-Sepharose (Pharmacia) column. After washing, the GST-tagged proteins are then eluted with a glutathione-containing buffer. Purified protein is stored at −70° C. in elution buffer. Tyrosine protein kinase assays with purified GST-IGF-1R and GST-ins-R are carried in a final volume of 30 μl containing 20 mM Tris-HCl, pH 7.6, 10 mM MgCl2, 0.01 mM Na3VO4, 1% DMSO, 1 mM DTT, 3 μg/ml poly(Glu,Tyr) 4:1 and 10 μM ATP (γ-[^33P]-ATP 0.1 μCi). The assay is performed in 96-well plates at ambient temperature for 20 min and terminated by addition of 25 μl 0.05 M EDTA pH 7.0. An aliquot of 40 μl is spotted with a multichannel dispenser on Whatman P81 membranes mounted in a Millipore Microtiter filter manifold connected to a low vacuum source. After elimination of liquid, the membrane is transferred to a sequence of 4 washing baths containing 0.5% H3PO4 and one with EtOH (shaking incubation for 10 min each), dried, mounted onto a Hewlett Packard TopCount manifold added 10 μl Microscint® and counted. Compounds of formula (I) show up to 90% inhibition of Ins-R at 10,000 nM, preferably between 60-90% inhibition. The inhibition of Tek can be determined as follows: The procedure of the expression, purification and assay these kinases has been described. Fabbro et al., Pharmacol. Ther. 82(2-3) 293-301 (1999). In brief, the glutathione S-transferase (GST) gene from the pAcG1 vector (Pharmingen) is excised with EcoRV and EcoRI and inserted into the cloning site of the Fast-Bac baculoviral vector (GIBCO) creating a 5530 bp vector with N-terminal cloning sites derived from the pAcG1 fusion vector (FBG0). The C-terminal cloning site may be any cloning site (from the Fast-Bac vector) downstream of the N-terminal cloning site used. N-terminally GST-fused (pAcG1, Pharmingen) KDR, Flt-1, Flk-1, Tek and PDGFR-β kinase domains are obtained from ProQinase, Freiburg, Germany. Tek is recloned into the FBG1 vector by EcoRI excision and ligation into EcoRI digested FBG1 (FBG1-Tek). The coding sequences for the whole cytoplasmic domain of c-Kit (aa 544-976) and c-Fms (aa 538-972) are amplified by PCR from human uterus and from human bone marrow cDNA libraries (Clontech), respectively. The amplified DNA fragments are fused to GST by cloning them into FBG1 as BamHI-EcoRI insertions, to yield FBG1-c-Kit and FBG1-c-Fms. Tek is recloned into the FBG0 transfer vector by EcoRI excision and ligation into EcoRI digested FBG0 (FBG-Tie2/Tek). FGFR-1 and c-met kinase domains are obtained by PCR from human A431 cells. N-terminal primers contain an overhanging EcoRI site, while C-terminal primers contain a XhoI site to aid cloning into the transfer vectors. After digestion of both the PCR fragments and FBG0 the cleavage products are gel-purified and ligated together to form the kinase constructs (FBG-Met, FBG-FGFR-1).

The next assay deals with c-Src kinase (Homo sapiens, UniProt P12931). The assay is described as follows: c-Src kinase inhibition. The settings on record: Table 4; read-out: s-Scr, activity (IC50 for kinase inhibition). The text has this: An appropriate assay is described in Andrejauskas-Buchdunger et al., Cancer Res. 52, 5353-8 (1992).
The next assay addresses T2, c-Abl kinase (Homo sapiens, UniProt P00519).
T2 construct: The His-tagged kinase domain of c-Abl is cloned and expressed in the baculovirus/Sf9 system; His; made in house; host or cells: Sf9 (baculovirus)
T2 sequence (P00519 242-493 limits assumed): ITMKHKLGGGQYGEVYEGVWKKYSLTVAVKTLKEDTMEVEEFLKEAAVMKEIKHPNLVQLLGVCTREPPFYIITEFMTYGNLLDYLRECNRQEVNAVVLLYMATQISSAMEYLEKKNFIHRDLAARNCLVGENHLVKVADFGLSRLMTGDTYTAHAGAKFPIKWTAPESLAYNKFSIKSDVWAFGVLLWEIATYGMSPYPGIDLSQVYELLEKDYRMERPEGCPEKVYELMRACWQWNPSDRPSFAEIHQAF
The experiment in a line: c-Abl protein-tyrosine kinase filter binding assay. The settings on record: Table 4; read-out: c-abl, activity (IC50 for kinase inhibition). Here is the method:
The His-tagged kinase domain of c-Abl is cloned and expressed in the baculovirus/Sf9 system as described by Bhat et al. in J. Biol. Chem. 1997; 272:16170-16175. A protein of 37 kD (c-Abl kinase) is purified by a two-step procedure over a Cobalt metal chelate column followed by an anion exchange column with a yield of 1-2 mg/L of Sf9 cells (Bhat et al., reference cited). The purity of the c-Abl kinase is >90% as judged by SDS-PAGE after Coomassie blue staining. The assay contains (total volume of 30 μL): c-Abl kinase (50 ng), 20 mM Tris.HCl, pH 7.5, 10 mM MgCl2, 10 μM Na3VO4, 1 mM DTT and 0.06 μCi/assay [γ^33 P]-ATP (5 μM ATP) using 30 μg/mL poly-Ala,Glu,Lys,Tyr-6:2:5:1 (Poly-AEKY, Sigma P1152) in the presence of 1% DMSO. Reactions are terminated by adding 10 μL of 250 mM EDTA and 30 μL of the reaction mixture is transferred onto Immobilon-PVDF membrane (Millipore, Bedford, Mass., USA) previously soaked for 5 min with methanol, rinsed with water, then soaked for 5 min with 0.5% H3PO4 and mounted on vacuum manifold with disconnected vacuum source. After spotting all samples, vacuum is connected and each well rinsed with 200 μL 0.5% H3PO4. Membranes are removed and washed on a shaker with 0.5% H3PO4 (4 times) and once with ethanol. Membranes are counted after drying at ambient temperature, mounting in Packard TopCount 96-well frame, and addition of 10 μL/well of Microscint™ (Packard).

Another assay has as its target T3, human Flt-3 (Homo sapiens, UniProt P36888).
T3 construct: expressing the amino acid region amino acids 563-993 of the cytoplasmic kinase domain of human Flt-3; made in house; host or cells: Sf9 (baculovirus)
T3 sequence (P36888 563-993): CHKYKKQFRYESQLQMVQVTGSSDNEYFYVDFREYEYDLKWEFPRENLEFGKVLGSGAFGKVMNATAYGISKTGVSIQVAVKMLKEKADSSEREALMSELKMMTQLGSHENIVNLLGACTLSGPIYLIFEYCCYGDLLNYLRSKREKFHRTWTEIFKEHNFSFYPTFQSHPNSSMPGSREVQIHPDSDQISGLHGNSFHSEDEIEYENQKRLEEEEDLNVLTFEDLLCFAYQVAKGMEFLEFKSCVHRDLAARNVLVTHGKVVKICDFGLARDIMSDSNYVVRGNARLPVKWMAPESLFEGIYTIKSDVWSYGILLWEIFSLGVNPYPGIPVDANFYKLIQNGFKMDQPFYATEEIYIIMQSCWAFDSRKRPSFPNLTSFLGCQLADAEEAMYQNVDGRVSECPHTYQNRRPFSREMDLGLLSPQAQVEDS
The assay is described as follows: Flt3 kinase inhibition, GST-Flt-3, 33P incorporation into poly(Glu,Tyr). The following applies: Table 4; read-out: Flt-3, activity (IC50 for kinase inhibition). How it is done:
The compounds to be tested are then diluted in culture medium (without FCS, with 0.1% bovine serum albumin) and added to the cells. (Controls comprise medium without test compounds). After two hours' incubation at 37° C., recombinant VEGF is added; the final VEGF concentration is 20 ng/ml). After a further five minutes incubation at 37° C., the cells are washed twice with ice-cold PBS (phosphate-buffered saline) and immediately lysed in 100 μl lysis buffer per well. The lysates are then centrifuged to remove the cell nuclei, and the protein concentrations of the supernatants are determined using a commercial protein assay (BIORAD). The lysates can then either be immediately used or, if necessary, stored at −20° C. A sandwich ELISA is carried out to measure the VEGF-R2 phosphorylation: a monoclonal antibody to VEGF-R2 (for example Mab 1495.12.14; ProQinase, Freiburg, Germany) is immobilized on black ELISA plates (OptiPlate™ HTRF-96 from Packard). The plates are then washed and the remaining free protein-binding sites are saturated with 3% TopBlock® (Juro, Cat. # TB232010) in phosphate buffered saline with Tween 20® (polyoxyethylen(20)-sorbitane monolaurate, ICI/Uniquema) (PBST). The cell lysates (20 μg protein per well) are then incubated in these plates overnight at 4° C. together with an antiphosphotyrosine antibody coupled with alkaline phosphatase (PY20:AP from Zymed). […] The luminescence is measured in a Packard Top Count Microplate Scintillation Counter. The difference between the signal of the positive control (stimulated with VEGF) and that of the negative control (not stimulated with VEGF) corresponds to VEGF-induced VEGF-R2 phosphorylation (=100%). The activity of the tested substances is calculated as percent inhibition of VEGF-induced VEGF-R2 phosphorylation, wherein the concentration of substance that induces half the maximum inhibition is defined as the IC50 (inhibitory dose for 50% inhibition). […] Flt3 kinase inhibition is determined as follows: The baculovirus donor vector pFbacG01 (GIBCO) is used to generate a recombinant baculovirus expressing the amino acid region amino acids 563-993 of the cytoplasmic kinase domain of human Flt-3. The coding sequence for the cytoplasmic domain of Flt-3 is amplified by PCR from human c-DNA libraries (Clontech). The amplified DNA fragments and the pFbacG01 vector are made compatible for ligation by digestion with BamH1 and HindIII. Ligation of these DNA fragments results in the baculovirus donor plasmid Flt-3(1.1). The production of the viruses, the expression of proteins in Sf9 cells and the purification of the GST-fused proteins are performed as follows: Production of virus: Transfer vector (pFbacG01-Flt-3) containing the Flt-3 kinase domain is transfected into the DH10Bac cell line (GIBCO) and the transfected cells are plated on selective agar plates. Colonies without insertion of the fusion sequence into the viral genome (carried by the bacteria) are blue. Single white colonies are picked and viral DNA (bacmid) is isolated from the bacteria by standard plasmid purification procedures. Sf9 or Sf21 cells (American Type Culture Collection) are then transfected in flasks with the viral DNA using Cellfectin reagent. Determination of small scale protein expression in Sf9 cells: Virus containing media is collected from the transfected cell culture and used for infection to increase its titre. Virus containing media obtained after two rounds of infection is used for large-scale protein expression. For large-scale protein expression 100 cm^2 round tissue culture plates are seeded with 5×10^7 cells/plate and infected with 1 mL of virus-containing media (approx. 5 MOIs). After 3 days the cells are scraped off the plate and centrifuged at 500 rpm for 5 min. Cell pellets from 10-20, 100 cm^2 plates, are resuspended in 50 mL of ice-cold lysis buffer (25 mMTris-HCl, pH 7.5, 2 mM EDTA, 1% NP-40, 1 mM DTT, 1 mM PMSF). The cells are stirred on ice for 15 min and then centrifuged at 5000 rpms for 20 min. […]

Structures are written as SMILES. pIC50: −log10 of the molar value.

c-Src kinase, sequence (P12931 whole entry): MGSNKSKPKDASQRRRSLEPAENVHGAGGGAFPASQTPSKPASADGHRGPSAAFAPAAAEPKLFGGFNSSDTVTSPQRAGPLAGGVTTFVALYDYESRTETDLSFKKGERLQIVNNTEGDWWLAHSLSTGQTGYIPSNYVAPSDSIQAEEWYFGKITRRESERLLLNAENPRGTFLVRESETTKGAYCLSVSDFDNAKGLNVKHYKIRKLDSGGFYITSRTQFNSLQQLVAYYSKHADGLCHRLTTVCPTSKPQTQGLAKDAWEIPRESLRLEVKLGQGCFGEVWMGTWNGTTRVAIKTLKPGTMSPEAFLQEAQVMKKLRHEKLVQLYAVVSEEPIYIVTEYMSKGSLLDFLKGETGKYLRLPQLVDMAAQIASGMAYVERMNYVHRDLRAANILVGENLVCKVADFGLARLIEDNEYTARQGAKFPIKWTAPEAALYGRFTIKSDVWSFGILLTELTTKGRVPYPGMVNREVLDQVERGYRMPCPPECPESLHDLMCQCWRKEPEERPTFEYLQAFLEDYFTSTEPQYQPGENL
T1 sequence (P06213 958-1382 limits assumed): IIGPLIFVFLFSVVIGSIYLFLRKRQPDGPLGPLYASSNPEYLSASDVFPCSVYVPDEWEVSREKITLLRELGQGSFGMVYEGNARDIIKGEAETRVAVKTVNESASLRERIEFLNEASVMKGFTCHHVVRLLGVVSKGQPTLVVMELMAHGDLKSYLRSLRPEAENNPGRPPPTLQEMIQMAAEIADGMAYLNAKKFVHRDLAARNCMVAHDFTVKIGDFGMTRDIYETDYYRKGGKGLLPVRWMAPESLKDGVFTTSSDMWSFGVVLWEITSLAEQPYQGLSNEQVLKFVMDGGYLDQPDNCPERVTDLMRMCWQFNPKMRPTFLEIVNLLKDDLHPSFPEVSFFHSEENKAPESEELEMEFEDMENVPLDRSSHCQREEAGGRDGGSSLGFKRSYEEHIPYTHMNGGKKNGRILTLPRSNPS

In general, pIC50 refers to the negative decadic logarithm of the IC50, by convention in mol/L. In the case of `Nc1c(-c2c(Cl)cccc2Cl)cnc2c(-c3ccccc3)cnn12` [Example 16, 6-(2,6-Dichloro-phenyl)-3-phenyl-pyrazolo[1,5-a]pyrimidin-7-ylamine], in assay [1], the negative-log IC50 (pIC50) is greater than 5.00.
Take `COc1ccccc1-c1cnc2c(-c3ccc(N4CCN(C)CC4)cc3)cnn2c1N` [Example 27, 6-(2-Methoxy-phenyl)-3-[4-(4-methyl-piperazin-1-yl)-phenyl]-pyrazolo[1,5-a]pyrimidin-7-ylamine]: at c-Src kinase, the pIC50 is greater than 5.00.
On to `CN1CCN(c2ccc(-c3cnn4c(N)c(-c5csc6ccccc56)cnc34)cc2)CC1` [Example 19, 6-Benzo[b]thiophen-3-yl-3-[4-(4-methyl-piperazin-1-yl)-phenyl]-pyrazolo[1,5-a]pyrimidin-7-ylamine], for which the pIC50 on c-Src kinase and on c-Abl kinase was greater than 5.00 in each case.
Take `CN1CCN(c2ccc(-c3cnn4c(N)c(-c5ccccc5)cnc34)cc2)CC1` [Example 7, 3-[4-(4-Methyl-piperazin-1-yl)-phenyl]-6-phenyl-pyrazolo[1,5-a]pyrimidin-7-ylamine]: at c-Src kinase, the pIC50 was greater than 5.00.
On to `CN1CCN(c2cccc(-c3cnn4c(N)c(-c5ccsc5)cnc34)c2)CC1` [Example 49, 3-[3-(4-Methyl-piperazin-1-yl)-phenyl]-6-thiophen-3-yl-pyrazolo[1,5-a]pyrimidin-7-ylamine], for which, on human Flt-3, the pIC50 is greater than 5.00.

Source of the values: patent US20090099167A1, “Organic compounds” (Novartis Institutes for Biomedical Research, priority 2004, published 2009).
